Reference: US20020052354A1, “Paramagnetic DOTA derivatives, pharmaceutical agents that contain the latter, process for their production, and their use for MR imaging of necrosis and infarction” (Schering AG, priority 2000, published 2002)

Experiments:
infarction areas = details: Circulation, Vol. 90, No. 4, 1994; cited from earlier work
[1] = Determination of relaxivity R1 and R2 (Minispec PC 20); type: physicochemical; details: bovine plasma; 40° C.; 0.47 tesla; n = 3
Procedure: Determination of Relaxivity R1 [Lmmol^−1 s^−1] and R2 [Lmmol^−1 s^−1]
Measurement at 40° C.; 0.47 tesla
T1-sequence 180°-TI-90°, inversion recovery

[2] = in vivo; cited from earlier work

Substance	visualization of infarction areas (infarction areas)	Relaxivity R1 [1]	Relaxivity R2 [1]	deposition in the skin (photosensitization and discoloration) [2]
Gd-mesoporphyrin [1c, DE 4232925]	readily visualize infarction areas	15.3 ± 0.3 Lmmol^−1 s^−1	16.3 ± 0.2 Lmmol^−1 s^−1	tend to be deposited in the skin
Mn-tetraphenyl-porphyrin [Mn-TTP]	readily visualize infarction areas			
N,N-Bis[1,4,7-tris(carboxylatomethyl)-1,4,7,10-tetraazacyclododecane-Gd-complex-10-(3-aza-4-oxo-hexan-5-ylic)-acid]-4,4′-methylene-N′,N′-bis[(3-methoxy)-2-naphtoic acid]-tetrahydrazide [Example 4]		17.0 ± 0.1 Lmmol^−1 s^−1	20.2 ± 0.6 Lmmol^−1 s^−1	
N-(1,4,7,-Tris(carboxylatomethyl)-1,4,7,10-tetraazacyclododecane-Gd-complex-10-[1-carboxylate-1-[3-oxapropionic acid)-phenyl]-methyl-N′-[3-(methoxy),2-naphthoic acid]-dihydrazide, sodium salt [Example 11]		22.8 ± 0.8 Lmmol^−1 s^−1	29.2 ± 1.1 Lmmol^−1 s^−1	
